Test results taken from the supplement of paper PMC6045584.
± gives the standard deviation of the averaged measurements.

How the values were obtained:
[1] = compound: CCN(CC)CCCCNc1ncc2cc(-c3cc(OC)cc(OC)c3)c(NC(=O)NC(C)(C)C)nc2n1; assay: surviving fraction relative to DMSO-only wells; higher = less growth inhibition; conditions: exposure time: 5 days
Summary of the method: (§1)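 Surviving fraction was calculated by normalising CellTiter-Glo luminescence to the median of DMSO-only wells. Tumour cell lines in log phase were seeded in 384-well plates at 250–500 cells per well, and 24 hours later were exposed continuously for five days to inhibitors at 0.5, 1, 5, 10, 50, 100, 500 and 1000 nM.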

[2] = compound: COc1cc2c(cc1O)CC[C@@H]1[C@@H]2CC[C@]2(C)[C@@H](O)CC[C@@H]12 [2-METHOXYESTRADIOL]; assay: as above; conditions: exposure time: 5 days
Summary of the method: as §1

Test System | surviving fraction ([1]; 0.5 nM) | surviving fraction ([1]; 1 nM) | surviving fraction ([1]; 5 nM) | surviving fraction ([1]; 10 nM) | surviving fraction ([1]; 50 nM) | surviving fraction ([1]; 100 nM) | surviving fraction ([1]; 500 nM) | surviving fraction ([1]; 1000 nM) | surviving fraction ([2]; 0.5 nM) | surviving fraction ([2]; 1 nM) | surviving fraction ([2]; 5 nM) | surviving fraction ([2]; 10 nM) | surviving fraction ([2]; 50 nM) | surviving fraction ([2]; 100 nM) | surviving fraction ([2]; 500 nM) | surviving fraction ([2]; 1000 nM)
MDAMB134 BREAST | 1 ± 0.079 | 0.807 ± 0.069 | 0.863 ± 0.03 | 0.977 ± 0.23 | 0.872 ± 0.073 | 0.902 ± 0.069 | 0.829 ± 0.064 | 0.873 ± 0.05 | 0.832 ± 0.24 | 0.884 ± 0.12 | 0.777 ± 0.041 | 0.916 ± 0.18 | 0.755 ± 0.097 | 0.717 ± 0.12 | 0.56 ± 0.0085 | 0.619 ± 0.15
YAMATO SYNOVIAL | 0.852 ± 0.029 | 1.2 ± 0.13 | 1.19 ± 0.058 | 1.31 ± 0.062 | 1.14 ± 0.024 | 1.37 ± 0.037 | 1.2 ± 0.069 | 1.08 ± 0.088 | 1.06 ± 0.051 | 1.14 ± 0.052 | 1.08 ± 0.079 | 1.16 ± 0.028 | 1.18 ± 0.075 | 1.13 ± 0.11 | 0.521 ± 0.04 | 0.445 ± 0.031
C33A CERVIX | 0.832 ± 0.044 | 0.831 ± 0.077 | 0.921 ± 0.068 | 0.914 ± 0.1 | 0.968 ± 0.1 | 0.871 ± 0.12 | 0.828 ± 0.073 | 0.814 ± 0.065 | 0.689 ± 0.038 | 0.772 ± 0.04 | 0.918 ± 0.1 | 1.03 ± 0.055 | 0.965 ± 0.031 | 0.964 ± 0.055 | 0.482 ± 0.087 | 0.595 ± 0.028
MDAMB453 BREAST | 0.981 ± 0.029 | 1.03 ± 0.032 | 1.05 ± 0.058 | 1.05 ± 0.043 | 1.03 ± 0.082 | 1.04 ± 0.09 | 1.07 ± 0.033 | 0.814 ± 0.053 | 1.04 ± 0.059 | 0.995 ± 0.032 | 1.02 ± 0.079 | 1.02 ± 0.037 | 1.08 ± 0.037 | 1.05 ± 0.048 | 0.511 ± 0.072 | 0.257 ± 0.014
VCAP PROSTATE | 0.963 ± 0.068 | 1.07 ± 0.06 | 1.04 ± 0.047 | 1.1 ± 0.028 | 1.06 ± 0.034 | 1.12 ± 0.069 | 0.998 ± 0.059 | 1.01 ± 0.055 | 1.01 ± 0.05 | 0.983 ± 0.13 | 0.919 ± 0.054 | 1.1 ± 0.08 | 0.999 ± 0.075 | 1.06 ± 0.043 | 0.777 ± 0.069 | 0.231 ± 0.059
HOS BONE | 0.99 ± 0.019 | 1.01 ± 0.013 | 0.9947 ± 0.0083 | 1.03 ± 0.022 | 0.9823 ± 0.005 | 1.01 ± 0.015 | 0.9423 ± 0.0071 | 0.927 ± 0.025 | 0.996 ± 0.013 | 0.992 ± 0.029 | 1.02 ± 0.02 | 1.004 ± 0.0095 | 1.04 ± 0.015 | 1.05 ± 0.025 | 0.96 ± 0.02 | 0.158 ± 0.011
VP229 BREAST | 1.15 ± 0.079 | 1.09 ± 0.031 | 1.1 ± 0.12 | 1.11 ± 0.028 | 1.22 ± 0.12 | 1.11 ± 0.13 | 1.22 ± 0.061 | 1.15 ± 0.11 | 1.03 ± 0.077 | 1.09 ± 0.15 | 0.954 ± 0.093 | 1.04 ± 0.094 | 1.03 ± 0.15 | 1.18 ± 0.17 | 0.981 ± 0.058 | 0.801 ± 0.11
HCT15 LARGE INTESTINE | 0.875 ± 0.033 | 0.981 ± 0.02 | 0.971 ± 0.025 | 1.01 ± 0.012 | 0.963 ± 0.027 | 0.9977 ± 0.0093 | 0.987 ± 0.011 | 1.06 ± 0.047 | 0.947 ± 0.027 | 0.926 ± 0.028 | 0.959 ± 0.057 | 0.914 ± 0.04 | 1.01 ± 0.021 | 0.929 ± 0.1 | 0.0957 ± 0.014 | 0.0547 ± 0.0085
HOSMNG BONE | 1.02 ± 0.09 | 1 ± 0.072 | 0.994 ± 0.04 | 1.01 ± 0.062 | 0.996 ± 0.062 | 1.02 ± 0.11 | 1.02 ± 0.041 | 1.02 ± 0.065 | 0.97 ± 0.12 | 0.966 ± 0.034 | 0.957 ± 0.1 | 1 ± 0.046 | 1.05 ± 0.11 | 1.03 ± 0.084 | 0.652 ± 0.053 | 0.168 ± 0.011
HUO3N1 BONE | 0.996 ± 0.074 | 0.993 ± 0.047 | 1.04 ± 0.052 | 0.999 ± 0.043 | 0.9503 ± 0.0051 | 0.906 ± 0.055 | 0.727 ± 0.04 | 0.69 ± 0.013 | 1.01 ± 0.012 | 0.994 ± 0.037 | 1.05 ± 0.05 | 1.03 ± 0.057 | 1.07 ± 0.022 | 1.02 ± 0.041 | 0.87 ± 0.059 | 0.537 ± 0.03
KPD BONE | 0.978 ± 0.07 | 1.02 ± 0.033 | 1 ± 0.049 | 1.01 ± 0.12 | 1.02 ± 0.039 | 0.97 ± 0.058 | 0.925 ± 0.025 | 0.884 ± 0.058 | 0.992 ± 0.043 | 0.964 ± 0.04 | 1.02 ± 0.066 | 1.03 ± 0.014 | 1.08 ± 0.031 | 1.07 ± 0.024 | 0.784 ± 0.047 | 0.551 ± 0.026
